From US20060120975A1, “Oral care composition comprising a phenolic compound and antioxidant vitamins and vitamin derivatives” (Colgate-Palmolive Company, priority 2004, published 2006)

Test system: IL-1β stimulated PGE2 production
Assay: IL-1β stimulated PGE2 production cell culture assay, an inflammation model
Assay type: cell-based
Conditions: vitamin or vitamin derivative added to triclosan
Source text: The present invention is in part derived from a finding that, upon addition of an antioxidant vitamin or vitamin derivative to an antibacterial phenolic compound having anti-inflammatory activity, in particular a halogenated diphenylether compound having such activity, the anti-inflammatory activity can be enhanced.

CCCCCCCCCCCCCCCC(=O)OC[C@H](O)[C@H]1OC(=O)C(O)=C1O [Ascorbyl palmitate, ascorbyl palmitate]
enhancing the anti-inflammatory activity of triclosan: less dramatic enhancement

Cc1c(C)c2c(c(C)c1O)CCC(C)(C(=O)O)O2 (centres unmarked) [TROLOX®]
enhancing the anti-inflammatory activity of triclosan: especially effective

O=C1O[C@H]([C@@H](O)CO)C(O)=C1O [ascorbic acid]
enhancing the anti-inflammatory activity of triclosan: especially effective

CC(=O)Oc1c(C)c(C)c2c(c1C)CCC(C)(CCC[C@H](C)CCC[C@H](C)CCCC(C)C)O2 (some centres unmarked) [vitamin E acetate]
enhancing the anti-inflammatory activity of triclosan: especially effective

vitamin E
enhancing the anti-inflammatory activity of triclosan: less dramatic enhancement
